# Data reported in US20160106721A1, “HUMAN THERAPEUTIC AGENTS” (Life Plus, LLC, priority 2014, published 2016).
# Assays:
# [1] = system: human lung cancer cells (H358); assay: cell death in lung cancer spheroids; format: cell-based; settings: 24 hour exposure, increasing doses
# Protocol: (§1) The respective cells were individually cultured in a growth medium prepared using RPMI-1640 medium containing 11.1 mM D-glucose with 10% fetal bovine serum, 10 mM HEPES, 2 mM L-glutamine, 1 mM sodium pyruvate, 0.05 mM 2-mercaptoethanol, and Antibiotic-Antimycotic. These cells were maintained in T75 tissue culture flasks in a humidified incubator at 37° C. and 5% CO2. The media were changed on a third day after cell plating, and the cells were passaged on day 5 by trypsinization.
# (§2) Custom-made micromolds with 100 μm diameter wells were loaded with the cells (U.S. Pat. No. 8,735,154, incorporated by reference herein). The media were changed every day by partial replacement. Cell aggregates were allowed to form in the micromolds for 72 hours and then were transferred to a 100 mm non-treated tissue culture dishes for 3 additional days. The spheroids were passed through 70 μm and 100 μm cell strainers (#3431751 and #43152, Corning, Tewksbury, Mass.) and maintained in HEPES Balanced Salt Solution comprised of: 20 mM HEPES, 114 mM NaCl, 4.7 mM KCl, 1.2 mM KH2PO4, 1.16 mM MgSO4, 2.5 mM CaCl2, 25.5 mM NaHCO3 and 0.2% bovine serum albumin (fatty acid free), pH 7.2.
# The lymphomas treatment methods used were identical to those described in Example 2 relative to the pediatric leukemia cells, whereas the lung cancer treatment method was the same as described in Example 1.
# [2] = system: human ovarian cancer cells (A1847); assay: cell death in ovarian cancer spheroids; format: cell-based; settings: 24 hour exposure, increasing doses
# Protocol: as §1, §2
# (§3) The cells were treated and tested as set forth in Example 1.
# [3] = system: human prostate cancer cells (22rv1); assay: cell death in prostate cancer spheroids; format: cell-based; settings: 24 hour exposure, increasing doses
# Protocol: as §1, §2, §3
# [4] = system: ovarian cancer cells; settings: low doses of doxorubicin alone (up to 0.158 μM)
# Protocol: In this test, the synergism of GZ17-6.02 with doxorubicin (a common chemotherapy drug) was tested on ovarian cancer cells. In this test, increasing doses of doxorubicin were administered to ovarian cancer spheroids and cell deaths were measured, as described in Example 1. The protocol involved testing doxorubicin alone at various dosages (FIG. 8, doxorubicin alone—closed circles), with comparative tests using the various dosages of doxorubicin in combination with either 0.2 mg/mL (FIG. 8 open circles) or 0.4 mg/mL (FIG. 8 closed triangles) GZ17-6.02. Additionally, the induced cell death results from use of 0.2 mg/mL GZ17-6.02 alone (FIG. 8, line A) and 0.4 mg/mL GZ17-6.02 alone (FIG. 8, line B) were determined.
SMILES,cell death / anticancer effect (cell number) [1],cell death / anticancer effect (cell number) [2],cell death / anticancer effect (cell number) [3],"cell death, doxorubicin alone [4]"
Cc1nccc2c1[nH]c1cc(O)ccc12.Cl [harmole hydrochloride],demonstrated anticancer effects,demonstrated anticancer effects,demonstrated anticancer effects,–
COc1cc(C=O)ccc1O [vanillin],demonstrated anticancer effects,demonstrated anticancer effects,demonstrated anticancer effects,–
COc1ccc2c3c([nH]c2c1)[C@@H](C)NCC3 [tetrahydro-harmine],demonstrated anticancer effects,demonstrated anticancer effects,demonstrated anticancer effects,–
COc1cccc(C=O)c1O [O-vanillin],demonstrated anticancer effects,demonstrated anticancer effects,demonstrated anticancer effects,–
COc1ccc(CO)cc1O [isovanillyl alcohol],demonstrated anticancer effects,demonstrated anticancer effects,demonstrated anticancer effects,–
COc1ccc(C(=O)O)cc1O [isovanillic acid],demonstrated anticancer effects,demonstrated anticancer effects,demonstrated anticancer effects,–
COc1ccc2c3c([nH]c2c1)C(C)=NCC3 [harmaline],demonstrated anticancer effects,demonstrated anticancer effects,demonstrated anticancer effects,–
COc1cccc2c1C(=O)c1c(O)c3c(c(O)c1C2=O)C[C@@](O)(C(=O)CO)C[C@@H]3O[C@H]1C[C@H](N)[C@H](O)[C@H](C)O1 [doxorubicin],–,–,–,ineffective
CC1=NCCc2c1[nH]c1cc(O)ccc21.Cl [harmalol hydrochloride],demonstrated anticancer effects,demonstrated anticancer effects,demonstrated anticancer effects,–
